Data reported in PMC9133015 (Nature Communications, 2022).
Several values for one entry are separate records, joined by “and”; a condition that tells them apart may be missing. Identical values can stand only once.

Key:
DYRK3 = biological target: T1, DYRK3 (Homo sapiens, UniProt O43781); test: DYRKs kinase activity assay (33P-ATP, DYRKtide substrate): DYRK3; format: biochemical
T1 construct: purchased Reaction Biology Corporation (assay service)
T1 sequence (O43781 1-588): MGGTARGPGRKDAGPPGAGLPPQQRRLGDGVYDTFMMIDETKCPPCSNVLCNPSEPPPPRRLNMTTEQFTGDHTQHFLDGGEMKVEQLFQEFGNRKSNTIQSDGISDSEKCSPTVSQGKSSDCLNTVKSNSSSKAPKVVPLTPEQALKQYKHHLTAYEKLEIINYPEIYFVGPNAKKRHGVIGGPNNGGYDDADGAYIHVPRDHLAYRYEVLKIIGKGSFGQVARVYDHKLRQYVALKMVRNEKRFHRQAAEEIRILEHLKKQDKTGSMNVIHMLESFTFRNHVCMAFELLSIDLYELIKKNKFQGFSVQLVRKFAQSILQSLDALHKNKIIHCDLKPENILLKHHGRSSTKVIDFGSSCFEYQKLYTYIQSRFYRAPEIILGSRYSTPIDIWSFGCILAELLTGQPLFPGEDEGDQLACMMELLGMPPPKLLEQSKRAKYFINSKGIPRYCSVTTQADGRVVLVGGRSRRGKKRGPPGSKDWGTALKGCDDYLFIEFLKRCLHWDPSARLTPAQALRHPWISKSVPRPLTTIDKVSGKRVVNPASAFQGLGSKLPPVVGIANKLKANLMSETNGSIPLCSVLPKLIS

[1] = biological target: T2, panel of 370 protein kinases (Homo sapiens, UniProt Q00537); test: Kinase inhibitor specificity profiling (Reaction Biology Corporation); format: biochemical; conditions: 2 h, kinase CDK17/cyclin Y (PCTK2); read-out: % Enzyme Activity (relative to DMSO controls)
T2 construct: purchased Reaction Biology Corporation (assay service)

[2] = biological target: T3, panel of 370 protein kinases (Homo sapiens, UniProt Q8TD08); test: as above; format: biochemical; conditions: 2 h, kinase ERK7/MAPK15; read-out: % Enzyme Activity (relative to DMSO controls)
T3 construct: purchased Reaction Biology Corporation (assay service)

[3] = biological target: T4, panel of 370 protein kinases (Homo sapiens, UniProt Q9P289); test: as above; format: biochemical; conditions: 2 h, kinase MST4; read-out: % Enzyme Activity (relative to DMSO controls)
T4 construct: purchased Reaction Biology Corporation (assay service)

DYRK2 protein = biological target: T5, DYRK2 protein (Homo sapiens, UniProt Q92630); test: Microscale thermophoresis binding assay; conditions: for Fnorm: triplicates
T5 construct: 6xHis (N, cleaved yes); TEV protease cleavage site (N, cleaved yes); made in house; host or cells: E. coli BL21 (DE3)
T5 sequence (Q92630 72-479 isoform Q92630-2): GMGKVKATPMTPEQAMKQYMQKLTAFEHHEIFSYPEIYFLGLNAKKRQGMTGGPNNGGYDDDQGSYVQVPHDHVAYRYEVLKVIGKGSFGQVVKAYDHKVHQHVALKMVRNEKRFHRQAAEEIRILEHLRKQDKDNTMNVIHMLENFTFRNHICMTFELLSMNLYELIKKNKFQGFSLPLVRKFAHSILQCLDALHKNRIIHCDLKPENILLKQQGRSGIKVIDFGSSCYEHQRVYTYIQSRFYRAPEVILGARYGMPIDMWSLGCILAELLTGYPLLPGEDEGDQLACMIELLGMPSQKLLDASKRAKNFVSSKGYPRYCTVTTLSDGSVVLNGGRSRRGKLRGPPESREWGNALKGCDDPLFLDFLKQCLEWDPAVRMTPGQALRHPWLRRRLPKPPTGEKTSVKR

22Rv1 shDYRK2 cells = test: Anti-proliferation activity assay (CCK8, 72 h); format: cell-based, human
[4] = Homo sapiens, 22Rv1, read-out: inhibitory rate (%) mean

T4 sequence (Q9P289 whole entry): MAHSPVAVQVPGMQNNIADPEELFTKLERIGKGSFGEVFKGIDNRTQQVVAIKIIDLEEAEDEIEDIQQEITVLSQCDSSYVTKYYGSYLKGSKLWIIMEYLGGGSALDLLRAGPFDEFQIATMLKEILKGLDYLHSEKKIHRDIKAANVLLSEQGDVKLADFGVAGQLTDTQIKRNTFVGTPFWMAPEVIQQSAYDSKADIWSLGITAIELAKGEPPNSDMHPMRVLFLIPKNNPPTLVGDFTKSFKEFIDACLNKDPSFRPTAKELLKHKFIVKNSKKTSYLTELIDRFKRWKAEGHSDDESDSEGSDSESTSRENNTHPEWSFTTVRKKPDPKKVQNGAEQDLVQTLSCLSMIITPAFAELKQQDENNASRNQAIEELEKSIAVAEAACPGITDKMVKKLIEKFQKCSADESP
T2 sequence (Q00537 whole entry): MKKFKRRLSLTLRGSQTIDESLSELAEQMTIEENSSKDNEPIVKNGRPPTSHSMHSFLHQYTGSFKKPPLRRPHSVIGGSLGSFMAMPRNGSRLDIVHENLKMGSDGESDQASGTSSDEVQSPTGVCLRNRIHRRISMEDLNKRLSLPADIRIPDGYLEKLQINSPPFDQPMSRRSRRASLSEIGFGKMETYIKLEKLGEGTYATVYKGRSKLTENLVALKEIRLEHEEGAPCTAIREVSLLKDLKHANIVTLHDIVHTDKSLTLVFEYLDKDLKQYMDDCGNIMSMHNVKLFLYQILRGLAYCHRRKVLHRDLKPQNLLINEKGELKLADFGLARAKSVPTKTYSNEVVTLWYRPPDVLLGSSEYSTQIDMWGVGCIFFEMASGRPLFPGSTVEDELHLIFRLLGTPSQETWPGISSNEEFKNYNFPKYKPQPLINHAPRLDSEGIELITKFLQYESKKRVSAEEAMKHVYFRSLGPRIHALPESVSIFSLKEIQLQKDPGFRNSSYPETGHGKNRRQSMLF
T3 sequence (Q8TD08 whole entry): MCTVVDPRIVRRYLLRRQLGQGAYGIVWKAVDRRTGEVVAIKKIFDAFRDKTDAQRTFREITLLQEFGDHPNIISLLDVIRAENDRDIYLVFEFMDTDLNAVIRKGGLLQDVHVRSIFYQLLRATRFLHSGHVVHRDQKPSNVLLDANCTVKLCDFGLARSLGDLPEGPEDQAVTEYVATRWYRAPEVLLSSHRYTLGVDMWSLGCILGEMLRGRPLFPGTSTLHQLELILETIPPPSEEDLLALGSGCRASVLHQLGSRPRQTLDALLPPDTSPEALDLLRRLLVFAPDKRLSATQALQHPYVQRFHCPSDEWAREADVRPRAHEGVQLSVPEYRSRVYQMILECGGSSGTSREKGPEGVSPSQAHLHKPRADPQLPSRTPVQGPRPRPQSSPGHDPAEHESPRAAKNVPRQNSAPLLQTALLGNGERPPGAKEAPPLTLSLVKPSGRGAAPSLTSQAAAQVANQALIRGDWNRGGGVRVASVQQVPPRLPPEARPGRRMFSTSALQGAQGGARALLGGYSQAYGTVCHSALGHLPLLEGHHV

CCN1CCN(C(=O)c2ccc(Nc3ncc(F)c(-c4ccc5nc(N(C)C)sc5c4)n3)nc2)CC1 [YK-2-69]
IC50 (DYRK3): > 1000 nM | % Inhibition DYRK3 (DYRK3; 0.000762079 µM, duplicates): -8.00% and -1.03% | % Inhibition DYRK3 (DYRK3; 0.00228624 µM, duplicates): -10.03% and -2.95% | % Inhibition DYRK3 (DYRK3; 0.00685871 µM, duplicates): -8.21% and -7.66% | % Inhibition DYRK3 (DYRK3; 0.0205761 µM, duplicates): -2.65% and -5.02% | % Inhibition DYRK3 (DYRK3; 0.0617284 µM, duplicates): 11.61% | inhibition at 0.0617284 µM (DYRK3; 0.0617284 µM, duplicates): 6.58% | % Inhibition DYRK3 (DYRK3; 0.185185 µM, duplicates): 29.90% | inhibition at 0.185185 µM (DYRK3; 0.185185 µM, duplicates): 28.2% | % Inhibition DYRK3 (DYRK3; 0.555556 µM, duplicates): 51.81% | inhibition at 0.555556 µM (DYRK3; 0.555556 µM, duplicates): 49.4% | % Inhibition DYRK3 (DYRK3; 1.66667 µM, duplicates): 53.48% | % Inhibition DYRK3 (DYRK3; 5 µM, duplicates): 56.27% | inhibition at 5 µM (DYRK3; 5 µM, duplicates): 56.1% | inhibition at 1.66667 µM (DYRK3; read-out: % Inhibition DYRK3, 1.66667 µM, duplicates): 50.8% | selectivity over DYRK3 (DYRK3; vs DYRK2): more than 100 fold | remaining activity at 1 µM [1]: 99.2% | remaining activity at 1 µM [2]: 65.5% | remaining activity at 1 µM [3]: 98.4% | Kd (DYRK2 protein): 92 nM | Fnorm (DYRK2 protein; Ligand Concentration 1.52588e-9 M): 967.581 ‰ and 966.546 ‰ and 966.864 ‰ | Fnorm (DYRK2 protein; Ligand Concentration 3.05176e-9 M): 966.58 ‰ and 965.007 ‰ and 967.223 ‰ | Fnorm (DYRK2 protein; Ligand Concentration 6.10352e-9 M): 966.992 ‰ and 966.91 ‰ and 966.101 ‰ | Fnorm (DYRK2 protein; Ligand Concentration 1.2207e-8 M): 967.371 ‰ and 966.328 ‰ and 967.725 ‰ | Fnorm (DYRK2 protein; Ligand Concentration 2.44141e-8 M): 967.449 ‰ and 966.053 ‰ and 966.951 ‰ | Fnorm (DYRK2 protein; Ligand Concentration 4.88281e-8 M): 966.087 ‰ and 966.251 ‰ and 967.971 ‰ | Fnorm (DYRK2 protein; Ligand Concentration 9.76563e-8 M): 964.723 ‰ and 963.783 ‰ and 964.77 ‰ | Fnorm (DYRK2 protein; Ligand Concentration 1.95313e-7 M): 965.362 ‰ and 964.006 ‰ and 962.948 ‰ | Fnorm (DYRK2 protein; Ligand Concentration 3.90625e-7 M): 961.623 ‰ and 962.98 ‰ and 964.971 ‰ | Fnorm (DYRK2 protein; Ligand Concentration 7.8125e-7 M): 963.524 ‰ and 964.437 ‰ and 962.941 ‰ | Fnorm (DYRK2 protein; Ligand Concentration 1.5625e-6 M): 963.3 ‰ and 963.031 ‰ and 962.056 ‰ | Fnorm (DYRK2 protein; Ligand Concentration 3.125e-6 M): 962.439 ‰ and 962.002 ‰ and 962.785 ‰ | Fnorm (DYRK2 protein; Ligand Concentration 6.25e-6 M): 962.791 ‰ and 963.606 ‰ and 963.319 ‰ | Fnorm (DYRK2 protein; Ligand Concentration 1.25e-5 M): 961.109 ‰ and 965.797 ‰ and 962.38 ‰ | Fnorm (DYRK2 protein; Ligand Concentration 2.5e-5 M): 962.063 ‰ and 963.029 ‰ and 959.958 ‰ | Fnorm (DYRK2 protein; Ligand Concentration 5e-5 M): 962.013 ‰ and 961.244 ‰ and 962.047 ‰ | inhibitory activity on proliferation (in words) (22Rv1 shDYRK2 cells; 22Rv1 shDYRK2 cells, even at 80 μM): almost no inhibitory activity | inhibition at 10 µM (22Rv1 shDYRK2 cells; [4]): 19.7% | inhibition at 2.5 µM (22Rv1 shDYRK2 cells; [4]): 17.3% | inhibition at 20 µM (22Rv1 shDYRK2 cells; [4]): 26.3% | inhibition at 0.625 µM (22Rv1 shDYRK2 cells; Homo sapiens, 22Rv1 KD, inhibitor 0.625 uM, read-out: inhibitory rate (%) mean): 9.79% | inhibition at 1.25 µM (22Rv1 shDYRK2 cells; Homo sapiens, 22Rv1 KD, inhibitor 1.25 uM, read-out: inhibitory rate (%) mean): 14.3%
